{"source": "patent US5807832A", "about": "“Oral delivery of biologically active substances bound to vitamin B12” (Biotech Australia Pty Limited, priority 1988, dated 1998)", "assay_type_in_all_cases": "in vivo", "key": {"[1]": {"test_system": "Mature C57B1/6J female mice", "experiment": "Stimulation of ovulation in PMSG-primed mice (corpora haemorrhagica on the ovaries)", "experimental": "Mature C57B1/6J female mice were treated in the following fashion: On day 0 all mice received a subcutaneous (s.'c) superovulating dose of pregnant mare serum gonadotraphin (PMSG) to stimulate the growth of ovarian follicles. After 48 hours mice received various doses of LHRH, Lys-6-LHRH or saline. On day 3 mice were sacrificed and examined for ovulation. Ovulation was assessed by examining for the presence of corpora haemorrhagica on the ovaries using a stereoscopic microscope at […]."}, "S. typhimurium": {"test_system": "S. typhimurium", "experiment": "Systemic S. typhimurium infection in mice: survival and clearance", "settings": "for Elimination of systemic S. typhimurium infection / prevention of death (in words): 1 mg total dose; for Suvivors (day 10) Number / Suvivors (day 10) Percentage: total dose 1 mg as five doses 12 h apart from day 3, mice fed 1×10^6 S. typhimurium on day 0"}, "C57B1/6J mice [2]": {"test_system": "C57B1/6J mice", "experiment": "Footpad assay for DTH (footpad swelling)", "settings": "oral 50 μg priming dose, challenge with 10 μg immunizing antigen in right foot, swelling after 24 h", "experimental": "Feeding of these VB12-protein complexed was also capable of stimulating good cellular immunity (as measured by the footpad assay for DTH).\n+ Footpad swelling was measured in mm using a microcaliper. All groups\nreceived a 50 μg priming dose of antigen followed by challenge with 10\nμg of the immunizing antigen in the right foot and 10 μg of\novalbumen in the left footpad. Swelling was measured after 24 h."}, "C57B1/6J mice [3]": {"test_system": "C57B1/6J mice", "experiment": "Serum antibody response (ELISA titre) after oral feeding of antigen", "settings": "two feedings of antigen (50 μg) on days 1 and 14, reciprocal of antiserum dilution giving ELISA reading 0.5, day 21, mean of 15 mice ±1 SD", "experimental": "Female C57B1/6J mice (18-22 g) were obtained from the Animal Resources Centre (Perth, Western Australia). All mice received conjugate preparations in 0.5 ml of 0.1M carbonate/bicarbonate buffer pH9.5 using a specially prepared feeding needle. Mice were fed on days 0 and 14. On day 21 the mice were bled from the orbital plexus. Antibody titres of serum were determined by ELISA using alkaline phosphatase conjugated anti-mouse serum.\nThe possible potential for VB12 deliver protein molecules, covalently linked to it, from the intestine to the circulation was investigated. The immune response generated to this complex was compared to that generated by the protein fed alone or together with VB12, or to the protein injected intramuscularly.\n* The reciprocal of the antiserum dilution that gave an ELISA reading of\n0.5 afer 45min. at 37° C. on day 21 after initial feeding. Each\nvalue represents the mean of 15 mice ±1 standard deviation. Mice\nreceived two feedings of antigen (50 μg) on days 1 and 14. On day 21\nmice were bled from the retro orbital plaxus and the antibody titres\nmeasured by ELISA as described previously (RussellJones et al., 1984).\nEach protein molecule was substituted with an average of 5 VB12 groups."}}, "data": [{"substance": "lutenizing hormone releasing hormone [LHRH]", "values": [{"measurement": "Number of mice ovulating", "setting": "[1]; Table 2, PMSG 4 IU day 0, 50 μg iv day 2", "result": "1/3"}, {"measurement": "Number of mice ovulating", "setting": "[1]; Table 2, PMSG 8 IU day 0, 50 μg iv day 2", "result": "1/4"}, {"measurement": "Number of mice ovulating", "setting": "[1]; Table 3, PMSG 8 IU day 0, 50 μg/os day 2", "result": "1/5"}, {"measurement": "Number of mice ovulating", "setting": "[1]; Table 4, PMSG 8 IU day 0, 6 μg/os day 2", "result": "0/5"}, {"measurement": "Number of mice ovulating", "setting": "[1]; Table 4, PMSG 8 IU day 0, 12 μg/os day 2", "result": "0/5"}, {"measurement": "Number of mice ovulating", "setting": "[1]; Table 4, PMSG 8 IU day 0, 25 μg/os day 2", "result": "1/5"}, {"measurement": "Number of mice ovulating", "setting": "[1]; Table 4, PMSG 8 IU day 0, 50 μg/os day 2", "result": "1/5"}]}, {"substance": "neomycin", "values": [{"measurement": "Elimination of systemic S. typhimurium infection / prevention of death (in words)", "setting": "S. typhimurium; i.m. injection", "result": "could be saved"}, {"measurement": "Suvivors (day 10) Number", "setting": "S. typhimurium; i.m.", "result": 2}, {"measurement": "Suvivors (day 10) Percentage", "setting": "S. typhimurium; i.m.", "result": 100, "unit": "%"}, {"measurement": "Elimination of systemic S. typhimurium infection / prevention of death (in words)", "setting": "S. typhimurium; oral", "result": "not able to eliminate systemic infection"}, {"measurement": "Suvivors (day 10) Number", "setting": "S. typhimurium; oral", "result": 0}, {"measurement": "Suvivors (day 10) Percentage", "setting": "S. typhimurium; oral", "result": 0, "unit": "%"}]}, {"substance": "vitamin B12 [VB12]", "values": [{"measurement": "Footpad Response (footpad swelling)", "setting": "C57B1/6J mice [2]", "result": 0, "unit": "mm"}, {"measurement": "Serum Antibody Response", "setting": "C57B1/6J mice [3]", "result": "< 4"}, {"measurement": "Suvivors (day 10) Number", "setting": "S. typhimurium; oral", "result": 0}, {"measurement": "Suvivors (day 10) Percentage", "setting": "S. typhimurium; oral", "result": 0, "unit": "%"}]}]}
